Data published in article PMC12715794, “Comparative Characterization of Oxidative Enzymes for Arabinoxylan and Protein Cross-Linking via Ferulic Acid and Tyrosine in Model Systems” (Journal of Agricultural and Food Chemistry, 2025).
Counter-ions that a name gives are not always drawn. Like-named read-outs stand apart in the source and are kept apart here. Each block holds one compound with its values, some of them ahead of it.

Experiments:
[1] = test system: T1, TvL; laccase from Trametes versicolor; details: at pH and temperature optima; McIlvaine buffer; enzyme alone
T1 construct: gene LCC2

[2] = test system: T2, AbT; tyrosinase from Agaricus bisporus; test: spectrophotometric, product formation at […] nm; type: biochemical; details: at pH and temperature optima; McIlvaine buffer; enzyme alone
T2 construct: gene PPO3

[3] = test system: T1, TvL; laccase from Trametes versicolor; details: at pH and temperature optima; McIlvaine buffer
[4] = test system: T1, TvL; laccase from Trametes versicolor; test: HTyr-MBTH spectrophotometric assay, […] nm; type: biochemical; details: at pH and temperature optima; McIlvaine buffer; excess MBTH, 2% DMF
[5] = test system: T2, AbT; tyrosinase from Agaricus bisporus; test: HTyr-MBTH spectrophotometric assay, […] nm; type: biochemical; details: at pH and temperature optima; McIlvaine buffer; excess MBTH, 2% DMF
[6] = target: T3, AnG; glucose oxidase from Aspergillus niger (Aspergillus niger, UniProt P13006); test: ABTS-HrP-coupled spectrophotometric assay, […] nm; type: biochemical; details: 16 mM glucose, 1 mM ABTS, excess HrP (0.7 mg/mL); McIlvaine buffer
T3 construct: gene gox
T3 sequence (P13006 23-605): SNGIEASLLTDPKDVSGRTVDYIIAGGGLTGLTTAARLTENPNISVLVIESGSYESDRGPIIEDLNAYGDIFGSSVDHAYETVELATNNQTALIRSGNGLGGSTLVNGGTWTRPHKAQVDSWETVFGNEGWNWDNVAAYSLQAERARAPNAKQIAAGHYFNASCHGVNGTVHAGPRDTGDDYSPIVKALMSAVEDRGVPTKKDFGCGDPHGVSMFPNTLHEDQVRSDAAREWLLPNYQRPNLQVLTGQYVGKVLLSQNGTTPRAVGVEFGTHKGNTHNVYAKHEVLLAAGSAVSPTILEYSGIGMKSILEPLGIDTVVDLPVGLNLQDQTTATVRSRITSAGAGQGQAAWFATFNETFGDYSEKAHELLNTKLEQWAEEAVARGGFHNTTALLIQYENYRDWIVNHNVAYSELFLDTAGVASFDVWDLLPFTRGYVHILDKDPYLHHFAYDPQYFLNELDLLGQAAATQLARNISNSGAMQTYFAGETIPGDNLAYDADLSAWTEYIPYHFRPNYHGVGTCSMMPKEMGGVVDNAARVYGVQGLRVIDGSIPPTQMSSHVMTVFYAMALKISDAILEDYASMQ

SMILES: COc1cc(/C=C/C(=O)O)ccc1O [FA, trans-ferulic acid]
Km [1]: 57 µM

SMILES: N[C@@H](Cc1ccc(O)cc1)C(=O)O [Y, L-tyrosine]
Km [2]: 504 µM

SMILES: OC[C@H]1OC(O)[C@H](O)[C@@H](O)[C@@H]1O (stereo partly drawn) [D-glucose]
ABTS-HrP-coupled spectrophotometric assay, 415 nm [6]: For AnG, glucose as a substrate was converted to H2O2

The remaining lines, values ahead:

Km [3]: 36 µM
SMILES: CCn1c(=NN=c2sc3cc(S(=O)(=O)O)ccc3n2CC)sc2cc(S(=O)(=O)O)ccc21 [ABTS, 2,2′-azino-bis(3-ethylbenzothiazoline-6-sulfonic acid) diammonium salt]

Km [4]: 73 µM
Km [5]: 44 µM
SMILES: OCCc1ccc(O)c(O)c1 [HTyr, hydroxytyrosol]
